In ChEMBL document CHEMBL1201862, “PubChem BioAssay data set” (2004) one finds EC50 and AC50 data, which are given here for 55 molecules.

Several values for one entry are separate records, joined by “and”; a condition that tells them apart may be missing. Equal values may be shown once. Activity calls are given as the source filed them. Cut-off read from the data, not from the text of the source, for most assays here: actives have a measured EC50 and inactives only a lower limit.

Assay [1] deals with T1, Heat shock factor protein 1 (Mus musculus, UniProt P38532).
T1 sequence (P38532 whole entry): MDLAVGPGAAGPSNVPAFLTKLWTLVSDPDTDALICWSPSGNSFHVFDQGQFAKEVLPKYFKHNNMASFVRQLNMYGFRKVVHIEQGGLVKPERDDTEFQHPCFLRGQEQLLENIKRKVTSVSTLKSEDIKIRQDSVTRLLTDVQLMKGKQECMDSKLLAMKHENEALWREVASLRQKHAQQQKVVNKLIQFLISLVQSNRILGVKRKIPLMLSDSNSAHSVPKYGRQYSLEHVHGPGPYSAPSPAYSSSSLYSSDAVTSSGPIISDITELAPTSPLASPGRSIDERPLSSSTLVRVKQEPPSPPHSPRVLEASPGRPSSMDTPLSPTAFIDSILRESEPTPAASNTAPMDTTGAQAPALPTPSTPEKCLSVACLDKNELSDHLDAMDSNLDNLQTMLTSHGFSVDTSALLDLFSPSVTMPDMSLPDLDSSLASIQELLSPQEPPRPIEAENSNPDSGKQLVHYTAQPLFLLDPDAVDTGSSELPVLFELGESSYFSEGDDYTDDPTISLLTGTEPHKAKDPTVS
The assay is described as follows: inhibition of MG132-induced HSE-luciferase signal, confirmation, cell-based, NIH3T3, luminescence, dose retest (AID 2382).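 Note: NIH3T3 fibroblasts with HSF1-driven luciferase reporter stressed by proteasome inhibitor MG132; luminescence from HSF1-driven luciferase expression after 8 hours of MG132 stress.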 It is filed as functional.

Assay [2] in a line: cytotoxicity toward NIH3T3 fibroblasts, dose response, counter-screen, cell-based, ATP luminescence, mouse fibroblasts (AID 2010).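 Note: cells exposed to compound for about 90 hours before reading.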 Type of assay: functional. Background: The purpose of a counterscreen is to sort out artefacts and off-target activity.
Assay [3] is described as follows: inhibitors of intracellular T. cruzi replication, confirmation, NIH3T3 host cells, beta-gal luminescence (AID 2044).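 Note: intracellular parasites grown in NIH/3T3 mouse fibroblasts as host cells; luminescent beta-galactosidase reporter signal from transgenic T. cruzi replicating inside host cells; inhibitors lower the luminescence signal.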 It is filed as functional, cell-based.
For assay [4], the target named is Cytochrome P450 3A4 (Homo sapiens, UniProt P08684).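 Note: CYP3A4 tested as one member of a cytochrome P450 panel screen.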
Sequence of Cytochrome P450 3A4 (P08684 whole entry): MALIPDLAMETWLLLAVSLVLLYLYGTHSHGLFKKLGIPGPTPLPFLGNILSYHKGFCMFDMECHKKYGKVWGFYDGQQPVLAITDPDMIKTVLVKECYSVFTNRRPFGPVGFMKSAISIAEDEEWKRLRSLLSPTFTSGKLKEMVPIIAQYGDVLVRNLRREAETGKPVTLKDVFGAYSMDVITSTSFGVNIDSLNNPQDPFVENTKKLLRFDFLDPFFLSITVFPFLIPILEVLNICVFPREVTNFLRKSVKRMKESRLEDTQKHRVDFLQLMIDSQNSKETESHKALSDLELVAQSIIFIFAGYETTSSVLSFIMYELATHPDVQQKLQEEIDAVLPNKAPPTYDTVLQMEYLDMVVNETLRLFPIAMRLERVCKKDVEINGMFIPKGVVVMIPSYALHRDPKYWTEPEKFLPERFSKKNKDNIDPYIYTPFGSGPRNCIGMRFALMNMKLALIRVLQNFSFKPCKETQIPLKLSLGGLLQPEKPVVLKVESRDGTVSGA
Assay [5] concerns the target Cytochrome P450 2C9 (Homo sapiens, UniProt P11712).
Assay [6] deals with T2, Corticotropin-releasing factor receptor 2/Corticotropin-releasing factor-binding protein (Homo sapiens, UniProt P24387+Q13324).
T2 sequence (Q13324 whole entry): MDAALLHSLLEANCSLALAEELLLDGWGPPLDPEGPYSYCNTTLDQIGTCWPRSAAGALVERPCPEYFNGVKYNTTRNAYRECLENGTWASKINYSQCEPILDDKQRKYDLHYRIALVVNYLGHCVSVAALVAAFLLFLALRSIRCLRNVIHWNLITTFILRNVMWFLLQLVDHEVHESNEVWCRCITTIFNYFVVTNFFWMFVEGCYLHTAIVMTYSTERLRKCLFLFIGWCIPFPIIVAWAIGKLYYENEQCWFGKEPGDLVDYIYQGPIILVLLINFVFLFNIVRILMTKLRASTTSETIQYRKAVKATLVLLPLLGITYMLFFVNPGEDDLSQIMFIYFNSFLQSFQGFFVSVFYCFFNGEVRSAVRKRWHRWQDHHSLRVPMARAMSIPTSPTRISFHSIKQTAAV
T2 sequence (P24387 whole entry): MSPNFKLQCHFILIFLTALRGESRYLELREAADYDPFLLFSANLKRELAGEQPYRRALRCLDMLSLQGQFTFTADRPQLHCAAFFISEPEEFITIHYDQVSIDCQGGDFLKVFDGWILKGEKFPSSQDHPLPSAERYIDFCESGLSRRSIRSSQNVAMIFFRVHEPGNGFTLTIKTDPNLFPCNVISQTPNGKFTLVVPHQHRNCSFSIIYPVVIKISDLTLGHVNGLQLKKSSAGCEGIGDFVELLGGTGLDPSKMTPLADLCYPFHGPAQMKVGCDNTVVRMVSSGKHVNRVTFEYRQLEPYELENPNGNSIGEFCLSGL
The assay is described as follows: activators of CRF receptor 2 with binding protein – uHTS hits, confirmation (AID 602473). Type of assay: functional. The settings on record: read-out: EC50_Mean.

The nature of assay [7]: Luminescence Cell-Based Dose Response HTS to Identify Activators of Luciferase Translation or Activity in H4 […] Cells. [Related pubchem assays: 1829 (Project Summary), 1814 (Primary HTS)]. Type of assay: functional.

Sequence of Cytochrome P450 2C9 (P11712 whole entry): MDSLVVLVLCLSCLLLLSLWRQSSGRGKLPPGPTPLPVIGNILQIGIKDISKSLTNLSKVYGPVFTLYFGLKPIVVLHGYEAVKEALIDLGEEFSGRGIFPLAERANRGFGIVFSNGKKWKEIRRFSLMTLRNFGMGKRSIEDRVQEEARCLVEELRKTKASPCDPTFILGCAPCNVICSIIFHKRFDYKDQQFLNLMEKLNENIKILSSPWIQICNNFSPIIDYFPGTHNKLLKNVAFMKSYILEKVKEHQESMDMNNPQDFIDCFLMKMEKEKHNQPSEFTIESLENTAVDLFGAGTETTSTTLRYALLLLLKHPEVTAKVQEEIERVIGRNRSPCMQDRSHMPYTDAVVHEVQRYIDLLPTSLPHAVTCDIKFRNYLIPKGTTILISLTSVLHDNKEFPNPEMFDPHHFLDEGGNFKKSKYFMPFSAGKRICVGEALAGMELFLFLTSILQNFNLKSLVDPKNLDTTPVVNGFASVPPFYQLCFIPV

With `CCOc1cc(C#N)c(NC(=O)c2cccnc2Cl)cc1OCC`, the EC50 in assay [1] is listed as > 195 µM (not active).

With `COc1ccc(C(=O)C2CCCN(Cc3cccn3-c3ccc(Cl)cn3)C2)c(OC)c1` (stereo not drawn), the EC50 was > 60 µM (not active) in assay [2] and 1.47 µM (active) in assay [3].

For the molecule `NS(=O)(=O)c1ccc(NC(=O)COC(=O)C2(c3ccccc3F)CCCC2)cc1`, the EC50 in assay [1] is 26 µM (active).

Take `CCN(CC)C(=O)N[C@@H]1C[C@H]2c3cccc4[nH]cc(c34)C[C@@H]2N(C)C1`: in assay [4], the concentration at half-maximal activity (AC50) is 6.31 µM (inconclusive) and 3.98 µM (inconclusive).

Take `Nc1ncnc2c1ncn2[C@@H]1O[C@H](CO)C[C@@H]1O`: the EC50 in assay [2] was > 60 µM (not active); in assay [3], 0.531 µM (active).

For the molecule `Fc1ccccc1Nc1nc(-c2ccncc2)nc2ccccc12`, the figures for the EC50 in assay [2] and in assay [3] were > 60 µM (not active) and 1.32 µM (active), respectively.

For the molecule `Cc1n[nH]c(Nc2ccccc2)c1[N+](=O)[O-]`, the half-maximal activity concentration (AC50) in assay [4] was 25.1 µM (inconclusive).

On to `CC(=O)OCC(=O)NCC(=O)c1c[nH]c2ccccc12`, for which the EC50 in assay [1] is recorded as > 195 µM (not active).

Regarding `O=C(O)CCC(=O)N1CCc2cc(S(=O)(=O)N3CCCCC3)ccc21`, the AC50 in assay [5] is 15.8 µM (inconclusive).

As for `Cc1c(C(=O)Nc2ccc(Cl)cc2)c2ccccn2c1C(=O)c1ccc([N+](=O)[O-])cc1`, the figures for the EC50 in assay [2] and in assay [3] were > 60 µM (not active) and 0.737 µM (active), respectively.

With `COc1cc(CCC(=O)OCn2nnc3ccccc3c2=O)cc(OC)c1OC`, in assay [1], the EC50 is recorded as > 195 µM (not active).

With `COc1ccc(CN2CC=C(c3ccc(F)cc3)CC2)cc1Br`, the EC50 in assay [1] is listed as > 195 µM (not active).

As for `CC(=O)Nc1ccc2nc(NC(=O)c3ccc([N+](=O)[O-])s3)sc2c1`, the EC50 in assay [2] is > 60 µM (not active); in assay [3], 0.993 µM (active).

Turning to `Fc1cccc(Cl)c1/C=N\N=C1c2ccccc2-c2ccccc21`, in assay [5], the AC50 was 3.16 µM (inconclusive).

`CN(C)Cc1ccccc1-c1cc(N(C)Cc2ccco2)ncn1`: the AC50 in assay [4] is 25.1 µM (inconclusive).

As for `O=C(CSc1ncc(-c2ccccc2)n1C1CCCC1)N1CCc2ccccc21`, the EC50 in assay [2] is > 60 µM (not active); in assay [6] it was > 53 µM (inactive); in assay [3], 1.81 µM (active).

For the molecule `CCOc1ccc(CN2CCN(Cc3nc4c(s3)CCCC4)CC2CCO)cc1` (stereo not drawn), the EC50 was > 60 µM (not active) in assay [2] and 0.772 µM (active) in assay [3].

As to `COc1ccccc1NC(=O)Cn1c(=O)c(N(C)C)c(N)n(C)c1=O`, in assay [1], the EC50 is given as > 195 µM (not active).

Turning to `O=C(NNC(=S)Nc1ccccc1)c1ccco1`, in assay [5], the half-maximal activity concentration (AC50) was 35.5 µM (inconclusive).

For `O=C(COC(=O)C1C2CC3OC(=O)C1C3C2)Nc1cccc(Cl)c1` (stereo not drawn), the EC50 in assay [1] is > 195 µM (not active).

`COc1ncc2nc(C)c(=O)n(C3CC3)c2n1`: in assay [4], the AC50 is 25.1 µM (inconclusive).

Consider `N#CC(=C1CCCC1)c1nc(-c2ccccc2)cs1`, for which, in assay [5], the half-maximal activity concentration (AC50) is 25.1 µM (inconclusive).

For the molecule `Cc1cc(OCC(=O)N2CCOCC2)ccc1NC(=O)c1ccccc1C`, in assay [1], the EC50 is recorded as > 195 µM (not active).

In the case of `Cc1cc2nc(-c3ccc(SCc4ccc(C#N)cc4)nc3)[nH]c2cc1C`, the EC50 in assay [2] was > 60 µM (inconclusive); in assay [3] it was 2.06 µM (active).

As for `CCC(=O)N(Cc1ccco1)c1nc(-c2ccccc2)cs1`, the AC50 in assay [4] was 39.8 µM (inconclusive).

On to `COc1ccccc1Oc1ccc2c(c1)C(=O)N(c1ccc(Br)c3cccnc13)C2=O`, for which, in assay [1], the EC50 is listed as > 195 µM (not active).

Regarding `CC1CN(S(=O)(=O)c2ccc(C(=O)Nc3nnc(-c4ccc5c(c4)CCCC5)o3)cc2)CC(C)O1` (stereo not drawn), the figures for the EC50 in assay [2] and in assay [3] were 3.39 µM (active) and 1.86 µM (active), respectively.

For `C=CCOc1ccc(/C=N\NC(N)=S)cc1`, the EC50 in assay [2] is > 60 µM (inconclusive); in assay [3] it was 1.17 µM (active).

With `COc1cc(CNCc2c[nH]c3ccccc23)cc(OC)c1`, the EC50 in assay [2] is > 60 µM (not active); in assay [3], 2.93 µM (active).

For `CNC(=O)c1ccsc1NC(=O)c1ccc(S(=O)(=O)N2CCCc3ccccc32)cc1`, the EC50 in assay [2] is > 60 µM (inconclusive); in assay [3], 2.02 µM (active).

On to `C/C(=N\Nc1ccc(C(=O)O)cc1)c1nc2ccccc2n1C`, for which, in assay [7], the EC50 is 18.9 µM (active).

`O=C(C1CCN(S(=O)(=O)N2CCOCC2)CC1)N1CCN(c2ccccc2)CC1`: the AC50 in assay [5] is 22.4 µM (inconclusive).

Regarding `COCCCNC(=O)C1CC(=O)N(CCc2ccc(OC)c(OC)c2)C1` (stereo not drawn), the AC50 in assay [4] is 15.8 µM (inconclusive).

Consider `CCOc1ccc(C(=O)Nc2ccccc2N2CCCC2)cc1`, for which, in assay [5], the AC50 is 14.1 µM (inconclusive).

Regarding `O=C1NC(=O)[C@@](Cc2ccccc2)(c2cccnc2)N1`, the AC50 in assay [4] was 3.98 µM (inconclusive).

On to `CC(C)(C)S(=O)(=O)c1cnc2c(-c3ccc(F)cc3)cnn2c1N`, for which the concentration at half-maximal activity (AC50) in assay [4] is 7.94 µM (inconclusive).

With `CC(C)N(CCNC(=O)C1CCC(=O)N1Cc1ccc(F)cc1)Cc1ccccc1` (stereo not drawn), the AC50 in assay [5] was 22.4 µM (inconclusive).

Regarding `O=C(Oc1ccc2c(c1)CN(Cc1ccccc1)CO2)c1ccccc1`, the concentration at half-maximal activity (AC50) in assay [4] is 3.98 µM (inconclusive).

`CCN1CCN(c2ccc(S(=O)(=O)N3CCCCC3)cc2NC(=O)Cc2ccccc2F)CC1`: the EC50 in assay [2] was > 30 µM (not active); in assay [3], 0.235 µM (active).

Turning to `Clc1ccc(Cl)c(Nc2ccnc(SCc3ccccc3)n2)c1`, the results for the AC50 in assay [4] and in assay [5] were 3.98 µM (inconclusive) and 6.31 µM (inconclusive), respectively.

Regarding `Cn1c(CN2CCCC(C(=O)c3ccc4c(c3)OCO4)C2)nc2ccccc21` (stereo not drawn), the EC50 in assay [2] is > 60 µM (inconclusive); in assay [3], 1.35 µM (active).

As to `CCC(C)NC(=O)CN1C(=O)CN=C(c2ccccc2)c2ccccc21` (stereo not drawn), the EC50 in assay [1] is on record as > 195 µM (not active).

As to `CN(C)c1ccc(/N=C/c2nc(-c3ccccc3)oc2OC(=O)c2cccc(Br)c2)cc1`, the EC50 in assay [7] was 31 µM (active).

With `O=C(Nc1cccc(F)c1)N1CC[C@@]2(CCCNC2)C1`, the AC50 in assay [4] is 7.94 µM (inconclusive).

As to `COc1ccc(S(=O)(=O)/C(C#N)=C/Nc2cccc(OC)c2)cc1`, the EC50 in assay [1] is listed as > 195 µM (not active).

As for `CCN1C(=O)c2ccccc2[S+]([O-])c2ccc(C(=O)NCc3ccc(OC)cc3)cc21` (stereo not drawn), the EC50 in assay [1] is recorded as > 195 µM (not active).

Take `CC(C)c1ccc(CNCCCSc2ncccn2)cc1`: the figures for the EC50 in assay [2] and in assay [3] were > 30 µM (not active) and 0.163 µM (active), respectively.

Consider `COc1cccc(-c2nccc(NCc3cccc(C)c3)n2)c1`, for which, in assay [5], the AC50 is 1.58 µM (inconclusive).

`c1cncc(CNc2cc(-c3ccoc3)ncn2)c1`: the AC50 in assay [4] was 3.98 µM (inconclusive).

As for `COC(=O)[C@@]1(Cc2ccc(F)cc2)[C@H]2c3cc(C(=O)N4CCCC4)n(CCc4c[nH]c5ccc(OC)cc45)c3C[C@H]2CN1C(=O)c1ccccc1`, the concentration at half-maximal activity (AC50) in assay [4] is 0.251 µM (inconclusive).

Regarding `CCN(CC(=O)Nc1ccc(NC(C)=O)cc1)C(=O)C12CC3CC(CC(Cl)(C3)C1)C2`, in assay [1], the EC50 is recorded as > 195 µM (not active).

In the case of `Cc1onc(-c2ccc(Cl)cc2)c1-c1ccnc(SCC(=O)Nc2cc(Cl)cc(Cl)c2)n1`, the EC50 was > 60 µM (not active) in assay [2] and 1.72 µM (active) in assay [3].

`CCN(CC)S(=O)(=O)c1cc(C(=O)Nc2ccccc2C(=O)O)ccc1OC`: the AC50 in assay [4] is 12.6 µM (inconclusive).

As to `CCOC(=O)c1c(-c2ccccc2)n(C)c2ccc(O)cc12`, the EC50 in assay [1] was > 195 µM (not active).

In the case of `CN(Cc1nc(-c2ccccc2)no1)C(=O)c1ccc2c(c1)OCO2`, the EC50 in assay [1] is reported as > 195 µM (not active).

What is called AC50 is the midpoint of the concentration-response curve, whichever way the signal moves.
